Each structure is given as a SMILES string. Where two headings read alike, the source gives them in different places.

The record followed here is US12344584B2, “KCNQ potentiators” (Eli Lilly and Company, priority 2019, dated 2025).

In experiment [1] the test system is motor neurons derived from ALS patient iPSC line with pathogenic mutation in TARDBP. Put plainly: Optopatch excitability assay in motor neurons derived from ALS patient iPSC line (TARDBP mutation). As to conditions: for EC50: Homo sapiens, iPSC, TARDBP line, blue LED 5.1 mW/cm^2, mean, read-out: EC50, inhibition of excitability (action potential frequency). In kind it is cell-based, human. The source says: (§1) Optopatch Excitability Assay for Example 1 in Motor Neurons Derived From ALS Patient iPSC Lines
(§2) Altered excitability of cortical neurons and lower motor neuron is an important factor in the pathophysiology of ALS (See, for example, K. Kanai, et. al., J Neurol Neurosurg Psychiatry, 83, 734-738 (2012); P. Menon, et. al., Eur Neurol., 24, 816-824 (2017)). All-optical electrophysiology (“Optopatch”) was used to evaluate excitability in cultured motor neurons derived from iPSC lines from two ALS patients with different pathogenic mutations.
(§3) Cell Culture: The two iPSC lines are derived from one patient with a pathogenic mutation in TARDBP and one patient with a pathogenic repeat expansion mutation in C9orf72, respectively. Motor neurons are generated from these lines by a 2D differentiation method adapted from the dual SMAD inhibition neuronal patterning protocol (See S. M. Chambers, et. al., Nat Biotechnol., 27, 275-280 (2009)) by inclusion of motor neuron morphogens. Differentiation is verified by visual inspection, karyotyping and staining for beta-III-tubulin and the nuclear motor neuron marker ISL1. Neurons are cultured on a monolayer of mouse glia in mTeSR (Stem Cell Technologies), supplemented with 10 ng/mL BDNF. Forty-eight hours prior to imaging, 100 nM trans-retinal was added to the medium.
(§4) Transduction with Optopatch vectors: At 15 days in vitro, cultured motor neurons are transduced with a lentiviral vector to drive the co-expression of the actuator CheRiff-mOrange2 and the voltage indicator QuasAr3-Citrine (for details see D. R. Hochbaum, et. al., Nat. Methods, 11, 825-833 (2014)). Forty-eight hours prior to imaging, 100 nM trans-retinal was added to the medium.
Solutions: Recordings are performed in Brainphys™ imaging buffer with 3 mM potassium. The gap junction blocker 2-aminoethoxydiphenyl borate (50 μM) is added to eliminate electrical coupling between cells, and NBQX (10 μM), gabazine (20 μM), and AP5 (25 μM) were used to block synaptic transmission.
Optopatch Recordings: Five days after transduction, Optopatch imaging is performed on a custom, ultra-widefield fluorescence microscope at RT. Motor neurons are illuminated with red laser excitation (200 W/cm^2; 635 nm) to monitor changes in QuasAr fluorescence and blue LED excitation (0-127 mW/cm^2, 470 nm) to depolarize the cell membrane with CheRiff. A custom blue light stimulus protocol is used consisting of: i) 2 sec of red illumination only to monitor spontaneous activity, ii) 5×500 msec steps of increasing blue light intensity and iii) 2×2 sec linearly increasing blue light ramps, each with a different maximum blue intensity. Optopatch data are recorded using a Hamamatsu ORCA-Flash 4.0 sCMOS camera with a 1 kHz frame rate. The field of view size is 4 mm×0.5 mm. Custom control software written in MATLAB is used to control illumination protocols and record all movies. To examine acute effects of Kv7.2/7.3 potentiators, neurons are incubated with test compound for 15 min prior to imaging.
Data Analysis: Image segmentation analysis is performed using temporal Principle Component Analysis and spatial-temporal Independent Component Analysis to isolate individual neurons. A spike-finding algorithm is used to find action potentials, and data are analyzed for compound effects on mean firing rate, adaptation, rheobase and action potential waveform shape by comparing to vehicle controls (for detail, see C. A. Werley, et. al., Curr. Protoc. Pharmacol., 78, 11.20.1-11.20.24. (2017)).
Subjected to the protocol described above, the primary effect of the Example 1 is on the action potential firing rate in response to low intensity blue light illumination.
Fitting a 4-parameter logistic equation to the data may be used to determine the potency (EC50) of the effect of Example 1 on action potential frequency. Results are shown in Table 1 for two separate differentiation efforts each for the lines derived from the patients carrying the TARDBP and C9orf72 mutations.

Experiment [2] has as its system motor neurons derived from ALS patient iPSC line with pathogenic repeat expansion mutation in C9orf72. Nature of the experiment: Optopatch excitability assay in motor neurons derived from ALS patient iPSC line (C9orf72 repeat expansion). In kind it is cell-based. Conditions: Homo sapiens, read-out: EC50, inhibition of excitability (action potential frequency).
Description: as §1, §2, §3, §4
Solutions: Recordings are performed in Brainphys™ imaging buffer with 3 mM potassium. […]
Optopatch Recordings: Five days after transduction, Optopatch imaging is performed on a custom, ultra-widefield fluorescence microscope at RT. Motor neurons are illuminated with red laser excitation (200 W/cm^2; 635 nm) to monitor changes in QuasAr fluorescence and blue LED excitation (0-127 mW/cm^2, 470 nm) to depolarize the cell membrane with CheRiff. […] Optopatch data are recorded using a Hamamatsu ORCA-Flash 4.0 sCMOS camera with a 1 kHz frame rate. […]
Data Analysis: Image segmentation analysis is performed using temporal Principle Component Analysis and spatial-temporal Independent Component Analysis to isolate individual neurons. A spike-finding algorithm is used to find action potentials, and data are analyzed for compound effects on mean firing rate, adaptation, rheobase and action potential waveform shape by comparing to vehicle controls (for detail, see C. A. Werley, et. al., Curr. Protoc. Pharmacol., 78, 11.20.1-11.20.24. (2017)). […]

Regarding `CC(C)(C)[C@H](O)CNC(=O)NCc1ccnc(OCC(F)(F)F)c1` [Example 1, 1-[(2S)-2-hydroxy-3,3-dimethyl-butyl]-3-[[2-(2,2,2-trifluoroethoxy)-4-pyridyl]methyl]urea], the EC50 in experiment [1] (Diff 1) turned out to be 150 nM; in experiment [1] (Diff 2), 150 nM; in experiment [2] (Diff 1, blue LED 5.1 mW/cm^2, mean) it was 170 nM; in experiment [2] (Diff 2, blue LED 5.1 mW/cm^2, mean) it was 200 nM. Further, the “effect on action potential frequency” value in experiment [1] (blue LED illumination intensity 5.1 mW/cm^2, text does not distinguish the two lines) was “decreased action potential frequency in a concentration-dependent manner”. For the same compound, the “observed effects compared with flupirtine” value in experiment [1] (both patient lines, vs known Kv7.2/7.3 potentiator flupirtine) was “qualitatively similar but more potent”.

Usually EC50 stands for the concentration giving half of the maximal effect.
